These results are taken from ChEMBL document CHEMBL5154826, “Discovery of the Clinical Candidate MAK683: An EED-Directed, Allosteric, and Selective PRC2 Inhibitor for the Treatment of Advanced Malignancies” (J Med Chem, 2022).

A short description of data set [1]: Inhibition of PRC2 (unknown origin) assessed as reduction in H3K27 trimethylation using H3K27Me0 peptide (21 to 44 residues) as substrate by measuring SAH formation by LC-MS analysis. Also on record: species or system Homo sapiens.
Another data set relates to Pfeiffer. Nature of the data set: Antiproliferative activity against human Pfeiffer cells assessed as inhibition of cell growth after 6 days by celltitre-glo assay. The class given is functional. Conditions: 144 h, time 6 day.
A further data set is described as follows: cells. The conditions noted are these: Homo sapiens, G-401, 48 h.
Data set [2] is described as follows: High throughput solubility of the compound at pH 6.8 after 16 to 24 hrs by MS/MS analysis. Conditions: buffer, time 16-24 hrs. Format: physicochemical.
For another data set, the target named is Cytochrome P450 2D6 (Homo sapiens, UniProt P10635). As to the kind of experiment: Inhibition of CYP2D6 in human liver microsomes using bufuralol as substrate incubated for 10 mins in presence of NADPH by LC-MS/MS analysis. The class given is ADME, Microsome. Background: Liver microsomes are a subcellular fraction often used to study metabolism.
A short description of data set [3]: High throughput solubility of the compound at pH 7 after 16 to 24 hrs by MS/MS analysis. The class given is physicochemical. The conditions noted are these: buffer, time 16-24 hrs.
Data set [4] can be described thus: High throughput solubility of the compound at pH 4 after 16 to 24 hrs by MS/MS analysis. Format: physicochemical. The conditions noted are these: buffer, time 16-24 hrs.
The target of data set [5] is T1, Alpha-2C adrenergic receptor (Homo sapiens, UniProt P18825).
T1 sequence (P18825 whole entry): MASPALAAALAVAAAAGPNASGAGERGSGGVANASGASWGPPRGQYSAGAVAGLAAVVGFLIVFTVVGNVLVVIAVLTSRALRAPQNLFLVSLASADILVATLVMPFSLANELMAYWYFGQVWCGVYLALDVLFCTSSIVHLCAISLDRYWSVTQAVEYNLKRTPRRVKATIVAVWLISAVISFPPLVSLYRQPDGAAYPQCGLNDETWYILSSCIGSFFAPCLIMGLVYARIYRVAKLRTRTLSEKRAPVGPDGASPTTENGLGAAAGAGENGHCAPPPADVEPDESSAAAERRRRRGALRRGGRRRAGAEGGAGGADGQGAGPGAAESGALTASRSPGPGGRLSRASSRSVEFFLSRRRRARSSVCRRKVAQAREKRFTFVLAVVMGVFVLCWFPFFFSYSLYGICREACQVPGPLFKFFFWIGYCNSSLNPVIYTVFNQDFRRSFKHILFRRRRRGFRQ
Nature of the data set: Inhibition of alpha2c adrenergic receptor (unknown origin).

Data set [6] has as its system KARPAS-422. Nature of the data set: Antiproliferative activity against human KARPAS-422 cells expressing EZH2 mutant assessed as inhibition of cell growth after 14 days by beckman coulter counting method. Format: functional. Conditions: Homo sapiens, KARPAS-422, 336 h; time 14 day.
A short description of data set [7]: Lipophilicity, logD of the compound at pH 7.4 by LC with tandem MS analysis. Format: physicochemical. The conditions noted are these: buffer, read-out: logD.
The nature of data set [8]: Dissociation constant, pKa of compound. Format: physicochemical.
In the next data set the target is Cytochrome P450 2C9 (Homo sapiens, UniProt P11712). As to the kind of experiment: Inhibition of CYP2C9 in human liver microsomes using diclofenac as substrate incubated for 10 mins in presence of NADPH by LC-MS/MS analysis. Format: ADME, Microsome.
The target of data set [9] is 3',5'-cyclic-AMP phosphodiesterase 4D (Homo sapiens, UniProt Q08499). Nature of the data set: Inhibition of human Phosphodiesterase 4D.
A short description of data set [10]: Permeability across apical to basolateral side in human Caco-2 cells at 10 uM incubated for 2 hrs by LC/MS/MS analysis. Conditions: Caco-2, read-out: permeability. The class given is ADME, cell-based.
A short description of data set [11]: Efflux ratio of apparent permeability across basolateral to apical side over apical to basolateral side in human Caco-2 cells at 10 uM incubated for 2 hrs by LC/MS/MS analysis. The class given is ADME, cell-based.
Data set [12] can be described thus: Dose normalized AUC in Sprague-Dawley rat at 2 mg/kg, po. The class given is ADME, organism-based. Conditions: in vivo.
Data set [13] can be described thus: Terminal half life in Sprague-Dawley rat at 2 mg/kg, po. The class given is ADME, organism-based. Conditions: in vivo, read-out: beta t1/2 (converted).
The nature of data set [14]: Oral bioavailability in Sprague-Dawley rat at 2 mg/kg. The class given is ADME, organism-based. The conditions noted are these: in vivo.
The target of the next data set is Cytochrome P450 3A4 (Homo sapiens, UniProt P08684). As to the kind of experiment: Inhibition of CYP3A4 in human liver microsomes using midazolam as substrate incubated for 10 mins in presence of NADPH by LC-MS/MS analysis. Format: ADME, Microsome.
For data set [15], the system named is KARPAS-422. Nature of the data set: Antitumor activity against human Karpas-422 cells xenografted Athymic BALB/c nude mouse assessed as effect on tumor growth, at 10 to 300 mg/kg, po bid, treatment started at twenty fifth after implantation of cancer cells measured upto 55 days. Format: functional, organism-based. Conditions: dose 10-300 mg/kg, time <= 55.0 day, DDE = dose-dependent effect. On the technique in general: A xenograft is tissue or cells of one species grown in another, often human tumour cells in immunodeficient mice.

In data set [16] the test system is Mus musculus. As to the kind of experiment: Reduction of […] in tumor of human Karpas-422 cells xenografted Athymic BALB/c nude mouse tumor at 3 to 300 mg/kg, po bid for 10 days. The class given is functional, organism-based. Conditions: dose 3-300 mg/kg, time 10.0 day, DDE = dose-dependent effect.
For data set [17], the system named is Mus musculus. Nature of the data set: Reduction of H3K27 level in tumor of human Karpas-422 cells xenografted Athymic BALB/c nude mouse at 3 to 300 mg/kg, po bid for 21 days. The class given is functional, organism-based. Conditions: dose 3-300 mg/kg, time 21.0 day, DDE = dose-dependent effect.
For data set [18], the system named is Mus musculus. As to the kind of experiment: Reduction of H3K27 level in tumor of human Karpas-422 cells xenografted Athymic BALB/c nude mouse at 3 to 100 mg/kg, po bid measured after 14 days. The class given is functional, organism-based. Conditions: dose 3-100 mg/kg, time 14.0 day, DDE = dose-dependent effect.
Data set [19] concerns KARPAS-422. As to the kind of experiment: Antitumor activity against human Karpas-422 cells xenografted Athymic NTac:NIH-Whn nude rat assessed as inhibition of cell growth at 0.3 to 60 mg/kg, po, qd upto 130 days. Format: functional, organism-based. The conditions noted are these: dose 0.3-60 mg/kg, time <= 130.0 day.
Data set [20] relates to PBMC. Nature of the data set: In vivo inhibition of PRC2 in PBMC collected from human Karpas-422 cells xenografted Athymic NTac:NIH-Whn nude rat assessed as reduction in H3K27me3 level at 30 mg/kg, po, qd upto 4 weeks by FACS method. The class given is functional, organism-based. Conditions: TDE = time-dependent effect.
Data set [21] deals with PBMC. As to the kind of experiment: In vivo inhibition of PRC2 in PBMC collected from human Karpas-422 cells xenografted Athymic NTac:NIH-Whn nude rat assessed as complete recovery of H3K27me3 level at 30 mg/kg, po, qd treated for 4 weeks, followed by 4 weeks recovery period by FACS method. The class given is functional, organism-based.
The test system of data set [22] is Mus musculus. As to the kind of experiment: Reduction of H3K27 level in tumor of human Karpas-422 cells xenografted Athymic BALB/c nude mouse tumor at 20 mg/kg, po qd measured after 14 days. The class given is functional, organism-based. The conditions noted are these: time 14.0 day.

In brackets after ≈: the same amount, converted by molar mass. Activity calls are given as the source filed them. The calls are words filed in the database; no cut-off is given here. A value given as a limit tells only on which side of the number the result lay.

Cytochrome P450 2D6, sequence (P10635 whole entry): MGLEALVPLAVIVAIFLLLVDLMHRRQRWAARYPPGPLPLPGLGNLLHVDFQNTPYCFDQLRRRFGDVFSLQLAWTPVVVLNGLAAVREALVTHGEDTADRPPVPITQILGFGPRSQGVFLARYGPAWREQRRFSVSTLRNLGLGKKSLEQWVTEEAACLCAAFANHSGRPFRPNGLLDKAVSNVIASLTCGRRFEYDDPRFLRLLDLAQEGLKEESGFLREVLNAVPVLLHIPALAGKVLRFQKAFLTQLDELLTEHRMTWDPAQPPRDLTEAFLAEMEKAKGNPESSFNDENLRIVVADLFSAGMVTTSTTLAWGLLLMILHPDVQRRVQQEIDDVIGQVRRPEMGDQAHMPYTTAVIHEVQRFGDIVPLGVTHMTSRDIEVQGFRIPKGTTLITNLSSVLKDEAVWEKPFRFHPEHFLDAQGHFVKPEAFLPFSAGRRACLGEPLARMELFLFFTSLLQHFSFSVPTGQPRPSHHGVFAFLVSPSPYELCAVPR
Cytochrome P450 2C9, sequence (P11712 whole entry): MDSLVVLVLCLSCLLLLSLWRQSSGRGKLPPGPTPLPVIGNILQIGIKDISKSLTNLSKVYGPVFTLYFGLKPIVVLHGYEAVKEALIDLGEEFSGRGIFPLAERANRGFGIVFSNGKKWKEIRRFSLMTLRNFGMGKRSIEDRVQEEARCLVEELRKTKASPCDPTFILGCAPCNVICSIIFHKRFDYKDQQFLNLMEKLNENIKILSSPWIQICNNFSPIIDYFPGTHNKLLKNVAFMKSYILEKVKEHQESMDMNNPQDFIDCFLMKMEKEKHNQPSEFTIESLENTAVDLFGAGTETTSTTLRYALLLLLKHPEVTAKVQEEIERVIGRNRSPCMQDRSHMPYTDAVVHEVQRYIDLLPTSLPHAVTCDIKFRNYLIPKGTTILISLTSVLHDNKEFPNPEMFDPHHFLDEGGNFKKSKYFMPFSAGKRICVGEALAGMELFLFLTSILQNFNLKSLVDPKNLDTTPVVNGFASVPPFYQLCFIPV
3',5'-cyclic-AMP phosphodiesterase 4D, sequence (Q08499 whole entry): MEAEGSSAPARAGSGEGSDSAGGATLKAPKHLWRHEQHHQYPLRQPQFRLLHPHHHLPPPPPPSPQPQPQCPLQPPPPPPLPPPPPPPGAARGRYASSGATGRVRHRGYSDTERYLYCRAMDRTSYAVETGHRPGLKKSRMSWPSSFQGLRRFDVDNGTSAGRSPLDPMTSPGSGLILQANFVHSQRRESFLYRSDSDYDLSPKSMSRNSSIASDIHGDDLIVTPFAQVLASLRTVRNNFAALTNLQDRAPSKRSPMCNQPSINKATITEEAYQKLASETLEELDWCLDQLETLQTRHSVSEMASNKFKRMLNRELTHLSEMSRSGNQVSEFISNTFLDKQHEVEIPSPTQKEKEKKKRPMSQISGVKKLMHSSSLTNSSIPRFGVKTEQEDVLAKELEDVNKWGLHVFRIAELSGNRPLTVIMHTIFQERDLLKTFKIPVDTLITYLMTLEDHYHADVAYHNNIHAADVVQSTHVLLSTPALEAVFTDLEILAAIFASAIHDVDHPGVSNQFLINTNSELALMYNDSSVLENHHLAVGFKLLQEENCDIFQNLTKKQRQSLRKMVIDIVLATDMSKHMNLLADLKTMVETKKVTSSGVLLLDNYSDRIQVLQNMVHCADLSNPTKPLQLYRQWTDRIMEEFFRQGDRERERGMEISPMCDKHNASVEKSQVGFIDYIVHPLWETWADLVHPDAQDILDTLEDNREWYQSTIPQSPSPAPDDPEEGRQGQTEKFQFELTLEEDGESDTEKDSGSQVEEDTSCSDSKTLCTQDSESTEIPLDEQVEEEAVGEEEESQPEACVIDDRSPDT
Cytochrome P450 3A4, sequence (P08684 whole entry): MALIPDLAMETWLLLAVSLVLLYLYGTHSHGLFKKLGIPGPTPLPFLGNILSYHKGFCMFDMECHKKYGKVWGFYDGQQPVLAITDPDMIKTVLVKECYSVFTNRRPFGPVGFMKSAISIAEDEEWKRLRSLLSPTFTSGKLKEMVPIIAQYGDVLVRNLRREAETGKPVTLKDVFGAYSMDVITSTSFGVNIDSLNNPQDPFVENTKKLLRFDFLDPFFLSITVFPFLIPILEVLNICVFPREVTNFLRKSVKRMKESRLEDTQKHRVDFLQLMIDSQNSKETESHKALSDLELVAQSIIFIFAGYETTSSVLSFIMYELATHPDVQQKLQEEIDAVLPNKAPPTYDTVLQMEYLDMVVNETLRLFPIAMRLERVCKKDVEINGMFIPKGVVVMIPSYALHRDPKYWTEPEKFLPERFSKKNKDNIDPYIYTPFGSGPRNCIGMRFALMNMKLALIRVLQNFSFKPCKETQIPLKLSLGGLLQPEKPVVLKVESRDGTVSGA
Description for cells: Inhibition of PRC2 in human G-401 cells assessed as H3K27 methylation status incubated for 48 hrs by ELISA method

With `CN(C)Cc1ccc(-c2cnc(NCc3cccc4c3OCO4)n3cnnc23)cc1`, the IC50 (usually the concentration needed to halve the response being measured) in [1] was 15 µM; in “cells” it was 260 µM. Also, in the data set with Pfeiffer, the GI50 (in general, the concentration that inhibits growth by half) was 1.3 µM.
In the case of `COc1cccc(F)c1CNc1ccc(-c2cccnc2C)c2nncn12`, the IC50 in data set [1] is 0.011 µM; on Cytochrome P450 2D6, > 50 µM. Moreover, the concentration in solution in [2] (solubility) was 265 µM (≈ 96.3 µg/mL).
Take `Cc1ccc(-c2cnc(NCc3c(F)ccc4c3CCO4)n3cnnc23)cn1`: the IC50 in [1] came to 0.019 µM; on Cytochrome P450 2D6, 7.4 µM. For the same compound, the concentration in solution in [2] (solubility) was 112 µM (≈ 42.2 µg/mL).
In the case of `Cc1ncccc1-c1cnc(NCc2c(F)ccc3c2CCO3)n2cnnc12.Cl`, the solubility (commonly how much of the substance goes into solution per volume) in data set [3] turned out to be 69 µM; in data set [4] it was 494 µM.
As to `c1cc(CNc2ncc(-c3ccncc3)c3nncn23)c2c(c1)OCC2`, the IC50 in data set [5] is > 30 µM; in data set [1], 0.017 µM; at Cytochrome P450 2C9, > 50 µM; on Cytochrome P450 2D6 it was 0.2 µM; in [9], 10 µM. For the same compound, in the data set on KARPAS-422 [6], the GI50 stood at 0.01 µM. Moreover, the logD – broadly, the decadic logarithm of the distribution of all forms, ionised or not, between an organic phase and buffer at a given pH – in data set [7] came out at 2.5. Also, in data set [8], the pKa – broadly, the negative logarithm of the acid dissociation constant – was determined as 5.4. This compound yielded a solubility in [2] of 5 µM (≈ 1.72 µg/mL).
`c1cncc(-c2cnc(NCc3cccc4c3CCO4)n3cnnc23)c1`: the half-inhibitory concentration (IC50) in data set [5] was determined as 3.9 µM; in data set [1], 0.024 µM; at Cytochrome P450 3A4 it was 29 µM; at Cytochrome P450 2C9, 12 µM; at Cytochrome P450 2D6, 0.1 µM; in data set [9] it was 2.6 µM. Further, the IC50 in “cells” was found to be 0.033 µM. Also, the GI50 in the data set on KARPAS-422 [6] is 0.012 µM. Further, the logD in data set [7] was 2.6. The compound further returned a pKa in data set [8] of 4.5. In data set [2], this compound came in with a solubility of 15 µM (≈ 5.17 µg/mL). Besides, in [10], the Papp A→B at 2 h, 10 µM amounted to 30 ×10⁻⁶ cm/s. For the same compound, the efflux ratio (in general, the permeability from basolateral to apical divided by that in the opposite direction, in the common usage) at 2 h, 10 µM in [11] worked out at 0.96. The same compound returned an AUC/dose in data set [12] of 5790 nM·h. Further, the half-life in [13] was 1.5 h. In addition, the bioavailability (commonly the share of a dose that reaches the circulation, judged against a reference dose that is usually intravenous) in data set [14] was 71%.
As to `Cc1ccc(-c2cnc(NCc3c(F)ccc4c3CCO4)n3cnnc23)c(C)n1`, the IC50 in data set [1] is 0.005 µM; at Cytochrome P450 2D6 it was 31 µM. Further, the concentration in solution in data set [2] (solubility) was 308 µM (≈ 120 µg/mL).
Take `COc1cccc(F)c1CNc1ccc(-c2cccnc2)c2nncn12`: the IC50 turned out to be 0.016 µM in data set [1] and 0.4 µM on Cytochrome P450 2D6. In data set [2], this compound registered a solubility of 22 µM (≈ 7.69 µg/mL).
For `CN(C)Cc1ccc(-c2cnc(NCc3cccc4c3CCO4)n3cnnc23)cc1`, the results for the concentration for half-maximal inhibition (IC50) (in data set [1]; in the data set “cells”) were 20 µM and 14 µM, respectively. Also, the GI50 in the data set with Pfeiffer was 0.067 µM.
`Fc1ccc2c(c1CNc1ncc(-c3cccnc3)c3nncn13)CCO2` showed a solubility in [2] of 85 µM (≈ 30.8 µg/mL). Further, at Cytochrome P450 2D6, the IC50 is 0.019 µM.
For the compound `CN(C)Cc1ccc(-c2cnc(NCc3cccc4c3OCC4)n3cnnc23)cc1`, the IC50 in [1] is 2600 µM.
For the compound `COc1cccc(F)c1CNc1ccc(-c2ccc(C)nc2C)c2nncn12`, the results for the IC50 (in data set [1]; at Cytochrome P450 2D6) were 0.023 µM and 25 µM, respectively. This compound gave a solubility in data set [2] of 162 µM (≈ 61.1 µg/mL).
Regarding `Cc1ncccc1-c1cnc(NCc2c(F)ccc3c2CCO3)n2cnnc12`, the Activity result with KARPAS-422 [15], in the data set on Mus musculus [16], in the data set with Mus musculus [17] and with Mus musculus [18] was “Dde” each time. Also, the outcome in the data set with KARPAS-422 [19] and in the data set on Mus musculus [22] was Active. Moreover, the inhibition result in the data set on PBMC [20] is “Tde”. Besides, in the data set on PBMC [21], the inhibition entry was “Active”.
In the case of `COc1cccc(CNc2ncc(-c3ccc(CN(C)C)cc3)c3nncn23)c1`, the IC50 in [1] came out at 110 µM; in the data set “cells”, 320 µM. Also, the GI50 in the data set on Pfeiffer amounted to 2.97 µM.
